Results: patent US10524469B2, “Acetate derived compounds from geranylorcinol. synthesis process for obtaining said compounds and use of said compounds as antifungal against Botrytis cinerea” (UNIVERSIDAD TÉCNICA FEDERICO SANTA MARÍA, priority 2015, dated 2020)
Like-named read-outs stand apart in the source and are kept apart here.

Test system: Botrytis cinerea
Test: Mycelial growth inhibition of B. cinerea, radial growth method in PDA
Type: cell-based
Details: for inhibition at 50 ppm / inhibition at 150 ppm / inhibition at 250 ppm: Botrytis cinerea; for Activity compared with the positive control when encapsulated in Pluronic F-127 micelle (in words): encapsulated in polymeric Pluronic F-127 micelle
Procedure: 20-40 milligrams of each of compounds 1 to 8 were dissolved in 500 microliters of Ethanol to have a stock solution of each compound according to its molecular weight. The stock solution was diluted in 5 mL of water so as to obtain a new stock solution of 5,000 ppm; from which corresponding aliquots were taken to achieve a final concentration on each plate with 50, 150 and 250 ppm potato dextrose agar (PDA) culture medium.
The method used for the preparation of polymeric micelles, based on Polycaprolactone (MW: 3.409 g/mol) or Pluronic® F-127 (MW: 12,500 g/mol) corresponds to the direct dissolution method consisting of the addition of the polymer to water with stirring and at room temperature, until the polymer dissolves to give a clear aqueous solution. The amount of polymer and water is chosen so as to have a solution of a concentration of 1×10^−3 M of polymer chains.
For the preparation of a solution of 50 mL of Pluronic F-127, 0.63 g is used and for the case of polycaprolactone 0.17 g is used.
The physical encapsulation of the compounds in the polymeric micelles (1×10^−3 M) is carried out by the emulsion method. The compound is dissolved in a volatile solvent (dichloromethane) and […] the polymer solution added in 100 μL aliquots to complete 400 μL reaching a concentration of 0.101 M of compound. By stirring in a vortex and applying ultrasound a very homogeneous milky emulsion is formed. The organic solvent is then removed by evaporation by heating the emulsion at 50° C. in a system open to air. Upon removal of the solvent, a clear solution remains containing the polymer forming micelles and the non-polar compounds which have been encapsulated in the hydrophobic micro-domain provided by the core of these polymeric micelles.
Subsequently, the solution is diluted by adding polymer solution corresponding to a 1×10^−3 M concentration until the compound of interest reaches a stock concentration in the range of 625-1,250 ppm in the micelle to be applied to the plate. This dilution should be done by adding polymer solution so as to maintain the same concentration of micelles and vary only the concentration of active ingredient.
In order to determine the inhibition of mycelial growth of B. cinerea, both for the free state and encapsulated compounds, the radial growth method in potato dextrose agar (PDA) culture medium was used. The compounds of interest in both free and encapsulated form were added to the PDA at different concentrations of 50, 150 and 250 ppm at a temperature of 50° C. Once the PDA had been solidified, a 4-mm diameter disc was seeded with mycelium of the pathogen in the center of the petri dish. The experiment consists of a negative control which is a petri dish where PDA culture medium and 1% Ethanol were added, in the case of Negative Control for encapsulated compounds it consists in adding only the micelle (polycaprolactone or Pluronic […]) free in PDA. In addition, a positive control containing commercially available fungicide Captan in PDA culture medium is included at the same concentrations tested in both its free form and also a positive control of Captan in its encapsulated form. Each treatment consisted of three replicates (n=3 replicates/compound/concentration).
After 48 (free state) and 72 (encapsulated system) hours of incubation at 23° C. under a photoperiod of 16 light hours/8 darkness hours, the mycelial growth inhibition percentage (MGIP) was calculated by assessing the measurement of the diameter of the fungus growth around the disc to calculate the mycelial growth inhibition area. In this way, the mycelial growth inhibition percentage that was compared to the corresponding controls after 48 hours of incubation was determined.

[1] = 48 h, read-out: Mycelial inhibition percentage of Botrityscinerea in vitro, free compound, 50 ppm in PDA, 48 hours of incubation
[2] = 48 h, read-out: Mycelial inhibition percentage of Botrityscinerea in vitro, free compound, 150 ppm in PDA, 48 hours of incubation
[3] = 48 h, read-out: Mycelial inhibition percentage of Botrityscinerea in vitro, free compound, 250 ppm in PDA, 48 hours of incubation
[4] = 72 h, read-out: Mycelial inhibition percentage of Botrityscinerea in vitro, encapsulated in Polycaprolactone (Diblock) micelles, 50 ppm, 72 hours
[5] = 72 h, read-out: Mycelial inhibition percentage of Botrityscinerea in vitro, encapsulated in Polycaprolactone (Diblock) micelles, 150 ppm, 72 hours
[6] = 72 h, read-out: Mycelial inhibition percentage of Botrityscinerea in vitro, encapsulated in Polycaprolactone (Diblock) micelles, 250 ppm, 72 hours
[7] = 72 h, read-out: Mycelial inhibition percentage of Botrityscinerea in vitro, encapsulated in Pluronic F-127 (Triblock) micelles, 50 ppm, 72 hours
[8] = 72 h, read-out: Mycelial inhibition percentage of Botrityscinerea in vitro, encapsulated in Pluronic F-127 (Triblock) micelles, 150 ppm, 72 hours
[9] = 72 h, read-out: Mycelial inhibition percentage of Botrityscinerea in vitro, encapsulated in Pluronic F-127 (Triblock) micelles, 250 ppm, 72 hours
[10] = encapsulated in Pluronic F-127 (Triblock) micelles, 50 ppm, 72 hours

Structure (SMILES)	inhibition at 50 ppm [1]	inhibition at 150 ppm [2]	inhibition at 250 ppm [3]	inhibition at 50 ppm [4]	inhibition at 150 ppm [5]	inhibition at 250 ppm [6]	inhibition at 50 ppm [7]	inhibition at 150 ppm [8]	inhibition at 250 ppm [9]	Mycelial inhibition percentage of Botrityscinerea in vitro [10]	Activity compared with the positive control when encapsulated in Pluronic F-127 micelle (in words)	further results
CC(C)=CCC/C(C)=C/Cc1c(C)cc(O)cc1O [Formula 1]	0%	25%	75%	37%	61%	73%						Effect on the mycelium of the pathogen when encapsulated in polycaprolactone micelles (in words): slightly improved
CC(=O)Oc1cc(C)c(C/C=C(\C)CCC=C(C)C)c(OC(C)=O)c1 [Formula 5]												inhibition at 50 ppm (encapsulated in Polycaprolactone (Diblock) micelles, 50 ppm, 72 hours, read-out: Mycelial inhibition percentage of Botrityscinerea in vitro): 16%; inhibition at 150 ppm (encapsulated in Polycaprolactone (Diblock) micelles, 150 ppm, 72 hours, read-out: Mycelial inhibition percentage of Botrityscinerea in vitro): 39%; inhibition at 250 ppm (encapsulated in Polycaprolactone (Diblock) micelles, 250 ppm, 72 hours, read-out: Mycelial inhibition percentage of Botrityscinerea in vitro): 80%; inhibition at 50 ppm (free compound, 50 ppm in PDA, 48 hours of incubation, read-out: Mycelial inhibition percentage of Botrityscinerea in vitro): 24%; inhibition at 150 ppm (free compound, 150 ppm in PDA, 48 hours of incubation, read-out: Mycelial inhibition percentage of Botrityscinerea in vitro): 55%; inhibition at 250 ppm (free compound, 250 ppm in PDA, 48 hours of incubation, read-out: Mycelial inhibition percentage of Botrityscinerea in vitro): 78%
CC(C)=CCC/C(C)=C/Cc1c(C)cc(O)c(C/C=C(\C)CCC=C(C)C)c1O [Formula 2]	25%	61%	93%	16%	36%	37%	81 to 99%	91%	96%	85%	equal to the activity of the positive control	
CC(C)=CCC/C(C)=C/Cc1c(O)cc(C)cc1O [Formula 3]	37%	65%	82%	9%	32%	42%						Effect on the mycelium of the pathogen when encapsulated in polycaprolactone micelles (in words): inactive
CC(C)=CCC/C(C)=C/Cc1c(O)cc(O)c(C/C=C(\C)CCC=C(C)C)c1C [Formula 4]	12%	56%	83%	93%	94%	97%	81 to 99%	92%	96%	82%	equal to the activity of the positive control	
O=C1C2CC=CCC2C(=O)N1SC(Cl)(Cl)Cl (stereo not shown) [C+ (positive control), Captan, reference compound]										98%		Mycelial inhibition percentage of Botrityscinerea in vitro (encapsulated in Pluronic F-127 (Triblock) micelles, 150 ppm, 72 hours): 99%; Mycelial inhibition percentage of Botrityscinerea in vitro (encapsulated in Pluronic F-127 (Triblock) micelles, 250 ppm, 72 hours): 99%; Mycelial inhibition percentage of Botrityscinerea in vitro (encapsulated in Polycaprolactone (Diblock) micelles, 50 ppm, 72 hours): 93%; Mycelial inhibition percentage of Botrityscinerea in vitro (encapsulated in Polycaprolactone (Diblock) micelles, 150 ppm, 72 hours): 99%; Mycelial inhibition percentage of Botrityscinerea in vitro (encapsulated in Polycaprolactone (Diblock) micelles, 250 ppm, 72 hours): 99%; Mycelial inhibition percentage of Botrityscinerea in vitro (free compound, 50 ppm in PDA, 48 hours of incubation): 87%; Mycelial inhibition percentage of Botrityscinerea in vitro (free compound, 150 ppm in PDA, 48 hours of incubation): 94%; Mycelial inhibition percentage of Botrityscinerea in vitro (free compound, 250 ppm in PDA, 48 hours of incubation): 94%
CC(=O)Oc1cc(OC(C)=O)c(C/C=C(\C)CCC=C(C)C)c(C)c1C/C=C(\C)CCC=C(C)C [Formula 8]	11%	54%	85%	0%	36%	36%	81 to 99%	99%	99%	93%	equal to the activity of the positive control	
CC(=O)Oc1cc(C)c(C/C=C(\C)CCC=C(C)C)c(OC(C)=O)c1C/C=C(\C)CCC=C(C)C [Formula 6]	5%	69%	97%	10%	31%	50%	81 to 99%	99%	99%	93%	equal to the activity of the positive control	
CC(=O)Oc1cc(C)cc(OC(C)=O)c1C/C=C(\C)CCC=C(C)C [Formula 7]	8%	51%	82%	32%	35%	59%						
